Assay results reported in patent publication US11718645B2, “Macrocyclic therapeutic agents, methods of manufacture, and methods of treatment” (University of Florida Research Foundation, Incorporated, priority 2014, dated 2023).
pIC50: −log10 of the molar value.

Tests used:
HCT116 cells = test: Cell viability assay (MTT); type: cell-based, human; conditions: for pIC50: determined after 48 h (n = 4)
Procedure: Human colon adenocarcinoma HCT116 cells were purchased from ATCC (Manassas, Va.) and cultured in Dulbecco's modified Eagle's medium (Invitrogen, Carlsbad, Calif.) supplemented with 10% fetal bovine serum (HyClone, Logan, Utah) at 37° C. humidified air and 5% CO2.
HCT116 cells were seeded at a density of 1×10^4 cells per well in 96-well plates. 24 h later the cells were treated with various concentrations of apratoxins or solvent control. After 48 h of incubation, cell viability was detected using MTT according to the manufacturer's instructions (Promega, Madison, Wis.).

[1] = tested on: met proto-oncogene (MET) receptor; test: Immunoblot analysis for RTK (MET) levels in HCT116 cells; type: cell-based, human; conditions: for activity compared with apratoxin S4 (BK) in all biological assays: HCT116, MET levels, cell viability, VEGF-A secretion
Procedure: HCT116 cells were seeded in 6-well plates at a density of 4×10^5 cells and the next day treated with various concentrations of apratoxins or solvent control. 24 h later, whole cell lysates were collected using PhosphoSafe buffer (EMD Chemicals, Inc, Gibbstown, N.J.). The protein concentration was measured with the BCA Protein Assay kit (Thermo Fisher Scientific, Rockford, Ill.). Lysates containing equal amounts of protein were separated by SDS polyacrylamide gel electrophoresis (4-12%), transferred to polyvinylidene difluoride membranes, probed with primary and secondary antibodies, and detected with the SuperSignal West Femto Maximum Sensitivity Substrate (Thermo Fisher Scientific). Anti-Met and secondary anti-mouse antibodies were from Cell Signaling Technology, Inc. (Danvers, Mass.).

[2] = Plasma stability in mouse serum; type: in vitro ADME; conditions: up to 24 h, FIG. 2C
Procedure: In vitro plasma stability of apratoxin A, S4 (BK), S7 (BL), S8 (BM) and S9 (BN) was done by using a modification of a published method [Chen, X.; Gardner, E. R.; Figg, W. D. J. Chromatogr. B Analyt. Technol. Biomed. Life Sci. 2008, 86, 153-158]. Ten microliters of apratoxin A, BK, BL, BM, or BN (25 μg/mL) were added to 100 μL of mouse serum, and the solution was vortex-mixed for 15 s and incubated for 0.25 min to 24 h (11 time points). At the end of each incubation period, 400 μL of ethyl acetate was added to each tube, followed by 200 μL of harmine to quench the reaction and to extract the remaining apratoxin A or S4 (BK), S7 (BL), S8 (BM) and S9 (BN). Samples were further incubated in a thermomixer at 27° C. (750 rpm, 5 min) and later centrifuged for 5 min at 1643 g. The ethyl acetate layer was collected and evaporated to dryness under nitrogen. Samples were reconstituted in 50 μL of acetonitrile. A volume of 10 μL of the reconstituted solution was injected into the HPLC-MS system.
Analysis of apratoxin A, S4 (BK), S7 (BL), S8 (BM) and S9 (BN) was done by using HPLC-MS [column, Onyx Monolithic C18 (3.0×100 mm), Phenomenex (Torrance, Calif.); solvent, water (solvent A) acetonitrile (solvent B); flow rate, 0.5 ml/min; detection by electrospray ionization-MS in positive ion mode (MRM scan)]. A stepwise gradient elution was used starting at 60% B and 40% A, then increasing to 80% B at 5 min and maintained at this condition for 5 min. Parameters were optimized before analysis by using direct syringe infusion. The retention times (tR, min; MRM ion pair) of the analytes and internal standard are as follows: harmine (2.2; 213.1→169.9), apratoxin A (4.7; 841.4→445.2), apratoxin S4 (BK) (4.1; 828.5→432.2), apratoxin S7 (BL) (4.05; 814.5→418.2), apratoxin S8 (BM) (5.2; 842.5→446.2), apratoxin S9 (BN) (4.9; 828.5→432.2). […]
Calibration curves for apratoxin A, S4 (BK), S7 (BL), S8 (BM) and S9 (BN) in the presence of mouse serum, HCT116 cell lysates, and aqueous solutions were generated by least-square linear regression analysis of the analyte peak area and internal standard peak area ratio against the nominal concentration of the standard solutions. A linear regression analysis was performed, and the concentration of remaining apratoxins at each time point was determined through interpolation for plasma, cellular, and aqueous stability experiments. The amount of remaining apratoxins with microsome incubation was determined from the peak area ratio of apratoxins at tx (3 min to 3 h) and t0. All calculations were done by using Analyst 1.4.2 (Applied Biosystems) Quantitate Mode.

HCT116 xenograft = test: In vivo efficacy, HCT116 xenograft mouse model
Procedure: 3-5 week old female nude mice (nu/nu) were obtained from Charles River Laboratory (Wilmington, Mass.). 1×10^6 HCT116 cells in a volume of 100 μL of sterile saline were injected subcutaneously on the left rear flank of a nude mouse to establish tumors. Tumor dimensions were measured using calipers every day and tumor volumes were calculated using the formula W^2×L×0.5, where width (W)≤length (L). Tumors with a starting volume bigger than 100 mm^3 were excluded from the analysis. Mice were injected intraperitoneally with the doses of 2 μg/mouse (0.1 mg/kg), 5 μg/mouse (0.25 mg/kg) of apratoxin S8 (BM) or solvent (DMSO) control every day until the tumor size in one dimension reached 15 mm and tumor tissue was harvested on the following day. 50 mg of tumor tissue was sonicated in PhosphoSafe lysis buffer (EMD chemicals, Inc) and used for immunoblot analysis described as the above. All studies were carried out under the protocol approved by the Institutional Animal Care and Use Committee at the University of Florida.

Structure (SMILES) | pIC50 (HCT116 cells) | activity compared with apratoxin S4 (BK) in all biological assays [1] | plasma stability [2] | dose dependence of tumor growth inhibition (HCT116 xenograft; 0.1 and 0.25 mg/kg daily i.p.) | signs of toxicity (weight loss, abnormal behavior) (HCT116 xenograft; 0.1 and 0.25 mg/kg daily i.p., nude mice) | effect on tumor growth (HCT116 xenograft; higher dose 0.25 mg/kg daily i.p., about 2 weeks) | tumor growth inhibition (HCT116 xenograft; lower dose 0.1 mg/kg daily i.p., about 2 weeks) | potency relative to the other apratoxins, cell viability (HCT116 cells) | potency in reducing levels of MET receptor ([1]; HCT116, immunoblot, 24 h, FIG. 1) | potency relative to the other apratoxins, MET levels ([1]; HCT116, immunoblot, FIG. 1)
CC[C@H](C)[C@H]1C(=O)N2CCC[C@@H]2C(=O)O[C@H](C(C)(C)C)C[C@@H](C)C[C@H](O)CC2=N[C@@H](CCC(=O)N[C@@H](Cc3ccc(OC)cc3)C(=O)N(C)[C@@H](C)C(=O)N1C)CS2 [apratoxin S7 (BL), Apratoxin S7] | 8.90 | retained potent activity | excellent | – | – | – | – | – | – | –
CC[C@H](C)[C@H]1C(=O)N2CCC[C@@H]2C(=O)O[C@H](C(C)(C)C)C[C@@H](C)C[C@H](O)C(C)(C)C2=N[C@@H](CCC(=O)N[C@@H](Cc3ccc(OC)cc3)C(=O)N(C)[C@@H](C)C(=O)N1C)CS2 [apratoxin S8 (BM), Apratoxin S8] | 8.70 | retained potent activity | excellent | clear dose-dependent tumor growth inhibition | did not observe signs of toxicity | strongly retarded the tumor growth | about 50% | – | – | –
CC[C@H](C)[C@H]1C(=O)N2CCC[C@@H]2C(=O)O[C@H](C(C)(C)C)C[C@@H](C)C[C@H](O)[C@H](C)C2=N[C@H](CCC(=O)N[C@@H](Cc3ccc(OC)cc3)C(=O)N(C)[C@@H](C)C(=O)N1C)CS2 [apratoxin S9 (BN), Apratoxin S9] | 9.16 | retained potent activity | excellent | – | – | – | – | 2-3 fold | superior, picomolar (sub-nanomolar) potency | 2-3 fold
